# From US10597405B2, “Chemical compounds” (ASTRAZENECA AB, priority 2017, dated 2020)
# Molecular target: T1, KRasG12C (Homo sapiens, UniProt P01116, G12C)
# T1 construct: biotin (biotinylated); made in house
# Assay: KRasG12C functional assay (HTRF nucleotide exchange / Raf RBD binding)
# Assay type: biochemical
# Conditions: GDP loaded biotinylated KRasG12C, samples incubated 4 hrs, FRET readout; single experiment or average of two or more
# Procedure: KRasG12C Functional Assay
# All enzyme and substrate solutions were prepared in assay buffer containing 20 mM HEPES (pH 7.5), 5 mM MgCl2, 150 mM NaCl, and 0.01% Tween 20. […] In a separate mix 20 nM GST-Raf Ras binding domain (GST-Raf RBD, purified in house) and 4 μg/ml anti-GST XL665 antibody (Cisbio) was prepared in assay buffer containing 50 mM Potassium Fluoride and 0.05 mg/ml BSA and equilibrated for 4 hours before adding 0.6 μM Guanosine 5′-[γ-thio]triphosphate (GTPγS, Sigma) and 0.08 μM SOS (purified in house). 5 μl of the GST-RAF RBD mix was then dispensed into each well of the assay plate. […] This is detected simultaneously via the specific binding interaction between active GTPγS KRas^G12C with GST-Raf RBD which brings the europium and XL665 into close proximity enabling an increased FRET signal to be detected on a Pherastar (BMG) plate reader equipped with the HTRF filter module. […] IC50 values were calculated from normalised dose-response response FRET data curve fitted in Genedata screener (Basel, Switzerland).
# T1 sequence (P01116 1-188 isoform P01116-2 G12C): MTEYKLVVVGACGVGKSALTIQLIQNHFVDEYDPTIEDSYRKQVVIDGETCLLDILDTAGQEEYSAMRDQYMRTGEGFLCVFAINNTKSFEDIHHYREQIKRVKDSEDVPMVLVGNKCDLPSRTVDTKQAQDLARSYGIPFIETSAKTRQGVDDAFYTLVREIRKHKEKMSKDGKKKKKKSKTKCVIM
row,Compound,IC50
1,"C=CC(=O)N1CCN2c3c(cnc4c(F)c(-c5c(F)cccc5CO)c(Cl)cc34)N(C)C(=O)[C@H]2C1 (single isomer, unassigned) [Compound 35]",133 nM
2,"C=CC(=O)N1CCN2c3c(cnc4c(F)c(-c5c(O)cccc5C(F)F)c(Cl)cc34)N(C)C(=O)[C@H]2C1 (single isomer, unassigned) [Compound 61]",38700 nM
3,"C=CC(=O)N1CCN2c3c(cnc4c(C)c(-c5c(O)cccc5F)c(C)cc34)N(C)C(=O)[C@H]2C1 (single isomer, unassigned) [Compound 44]",142 nM
4,"C=CC(=O)N1CCN2c3c(cnc4c(F)c(-c5c(O)cccc5Cl)c(Cl)cc34)N(C)C(=O)[C@H]2C1 (single isomer, unassigned) [Compound 51]",> 100000 nM
5,"C=CC(=O)N1C[C@@H]2C(=O)N(C)c3cnc4c(F)c(-c5c(C)ccc6[nH]cnc56)c(Cl)cc4c3N2C[C@H]1C (single isomer, unassigned) [Compound 28]",3 nM
6,"C=CC(=O)N1CCN2c3c(cnc4c(F)c(-c5c(O)cccc5C(F)F)c(Cl)cc34)N(C)C(=O)[C@H]2C1 (single isomer, unassigned) [Compound 62]",37 nM
7,"C[C@@H]1CN2c3c(cnc4c(F)c(-c5c(O)cccc5F)c(Cl)cc34)N(C)C(=O)[C@H]2CN1C(=O)/C=C/CN(C)C (single isomer, unassigned) [Compound 29]",25 nM
8,"C=CC(=O)N1CCN2c3c(cnc4c(Cl)c(-c5c(O)cccc5F)c(F)cc34)N(C)C(=O)[C@H]2C1 (single isomer, unassigned) [Compound 79]",141 nM
9,"C[C@@H]1CN2c3c(cnc4c(F)c(-c5c(O)cccc5F)c(Cl)cc34)OC[C@H]2CN1C(=O)/C=C/CN(C)C (single isomer, unassigned) [Compound 37]",21 nM
10,"C=CC(=O)N1CCN2c3c(cnc4c(F)c(-c5c(O)cccc5F)c(Cl)cc34)NC(=O)[C@H]2C1 (single isomer, unassigned) [Compound 89]",3600 nM
11,"C=CC(=O)N1C[C@@H]2COc3cnc4c(F)c(-c5c(O)cccc5F)c(F)cc4c3N2C[C@H]1C (single isomer, unassigned) [Compound 63]",1900 nM
12,"C=CC(=O)N1CCN2c3c(cnc4c(F)c(-c5c(O)ccc6ccccc56)c(Cl)cc34)N(C)C(=O)[C@H]2C1 (single isomer, unassigned) [Compound 55]",5900 nM
13,"C=CC(=O)N1C[C@@H]2C(=O)Nc3cnc4c(F)c(-c5c(O)cccc5F)c(Cl)cc4c3N2C[C@H]1C (single isomer, unassigned) [Compound 30]",4600 nM
14,"C=CC(=O)N1CCN2c3c(cnc4cc(-c5c(O)cccc5F)c(Cl)c(F)c34)N(C)C(=O)[C@H]2C1 [Compound 59, (4aR)-11-Chloro-12-fluoro-10-(2-fluoro-6-hydroxyphenyl)-6-methyl-3-(prop-2-enoyl)-2,3,4,4a-tetrahydro-1H-pyrazino[1′,2′:4,5]pyrazino[2,3-c]quinolin-5(6H)-one]",202 nM
15,"C=CC(=O)N1C[C@@H]2C(=O)N(C)c3cnc4c(F)c(-c5c(C)ccc6[nH]cnc56)c(Cl)cc4c3N2C[C@H]1C (single isomer, unassigned) [Compound 27]",8800 nM
16,"C=CC(=O)N1C[C@@H]2COc3cnc4c(F)c(-c5c(O)cccc5F)c(F)cc4c3N2C[C@H]1C (single isomer, unassigned) [Compound 64]",20 nM
17,"C=CC(=O)N1CCN2c3c(cnc4c(F)c(-c5c(O)cccc5Cl)c(Cl)cc34)N(C)C(=O)[C@H]2C1 (single isomer, unassigned) [Compound 52]",14 nM
18,"C=CC(=O)N1CCN2c3c(cnc4cc(-c5c(O)cccc5F)c(Cl)cc34)OC[C@H]2C1 (single isomer, unassigned) [Mixture of 1 & 2]",211 nM
19,"C=CC(=O)N1CCN2c3c(cnc4c(F)c(-c5c(O)ccc(F)c5F)c(Cl)cc34)N(C)C(=O)[C@H]2C1 (single isomer, unassigned) [Compound 57]",8900 nM
20,"C=CC(=O)N1CCN2c3c(cnc4cc(-c5c(O)cccc5F)c(Cl)c(Cl)c34)N(C)C(=O)[C@H]2C1 [Compound 60, (4aR)-11,12-Dichloro-10-(2-fluoro-6-hydroxyphenyl)-6-methyl-3-(prop-2-enoyl)-2,3,4,4a-tetrahydro-1H-pyrazino[1′,2′:4,5]pyrazino[2,3-c]quinolin-5(6H)-one]",501 nM
21,"C=CC(=O)N1CCN2c3c(cnc4c(F)c(-c5c(O)ccc6ccccc56)c(Cl)cc34)N(C)C(=O)[C@H]2C1 (single isomer, unassigned) [Compound 56]",56 nM
22,"C=CC(=O)N1CCN2c3c(cnc4c(F)c(-c5c(F)cccc5CO)c(Cl)cc34)N(C)C(=O)[C@H]2C1 (single isomer, unassigned) [Compound 34]",9800 nM
23,"C=CC(=O)N1C[C@@H]2COc3cnc4c(C)c(-c5c(O)cccc5F)c(Cl)cc4c3N2C[C@H]1C (single isomer, unassigned) [Compound 41]",1500 nM
24,"C=CC(=O)N1CCN2c3c(cnc4c(F)c(-c5c(O)cccc5F)c(F)cc34)N(C)C(=O)[C@H]2C1 [Compound 42, (4aR)-3-Acryloyl-9,11-difluoro-10-(2-fluoro-6-hydroxyphenyl)-6-methyl-2,3,4,4a-tetrahydro-1H-pyrazino[1′,2′:4,5]pyrazino[2,3-c]quinolin-5(6H)-one]",77 nM

# Next, values leading:
row,IC50,Compound
1,5800 nM,"C=CC(=O)N1CCN2c3c(cnc4cc(-c5c(C)ccc6[nH]ncc56)c(Cl)cc34)OC[C@@H]2C1 (single isomer, unassigned) [Example 5]"
2,28 nM,"C=CC(=O)N1CCN2c3c(cnc4c(F)c(-c5c(C)ccc6[nH]cnc56)c(Cl)cc34)N(C)C(=O)[C@H]2C1 (single isomer, unassigned) [Compound 25]"
3,13100 nM,"C=CC(=O)N1CCN2c3c(cnc4cc(-c5c(C)ccc6[nH]ncc56)c(Cl)cc34)N(CCN(C)C)C[C@H]2C1 (single isomer, unassigned) [Compound 74]"
4,40 nM,"C=CC(=O)N1CCN2c3c(cnc4c(F)c(-c5c(C)cccc5O)c(Cl)cc34)N(C)C(=O)[C@H]2C1 (single isomer, unassigned) [Compound 54]"
5,931 nM,"C#Cc1cc2c3c(cnc2cc1-c1c(C)ccc2[nH]ncc12)OC[C@H]1CN(C(=O)C=C)CCN31 (single isomer, unassigned) [Compound 76]"
6,9600 nM,"C=CC(=O)N1CCN2c3c(cnc4c(F)c(-c5c(C)ccc6[nH]ncc56)c(Cl)cc34)N(C)C(=O)[C@H]2C1 (single isomer, unassigned) [Compound 50]"
7,1100 nM,"C=CC(=O)N1CCN2c3c(cnc4cc(-c5c(F)ccc6cc[nH]c(=O)c56)c(Cl)cc34)OC[C@H]2C1 (single isomer, unassigned) [Compound 46]"
8,31 nM,"C=CC(=O)N1CCN2c3c(cnc4c(F)c(-c5c(C)ccc6[nH]c(=O)oc56)c(Cl)cc34)OC[C@H]2C1 (single isomer, unassigned) [Compound 47]"
9,333 nM,"C=CC(=O)N1CCN2c3c(cnc4cc(-c5c(O)cccc5F)c(Cl)cc34)N(CC)C(=O)[C@H]2C1 [Compound 90, (4aR)-11-Chloro-6-ethyl-10-(2-fluoro-6-hydroxyphenyl)-3-(prop-2-enoyl)-2,3,4,4a-tetrahydro-1H-pyrazino[1′,2′:4,5]pyrazino[2,3-c]quinolin-5(6H)-one]"
10,446 nM,"C=CC(=O)N1CCN2c3c(cnc4c(F)c(-c5c(C)ccc6[nH]cnc56)c(Cl)cc34)N(C)C(=O)[C@H]2C1 (single isomer, unassigned) [Compound 26]"
11,57 nM,"C=CC(=O)N1CCN2c3c(cnc4cc(-c5c(C)ccc6[nH]ncc56)c(Cl)cc34)N(CCN(C)C)C[C@H]2C1 (single isomer, unassigned) [Compound 73]"
12,3600 nM,"C=CC(=O)N1CCN2c3c(cnc4c(F)c(-c5c(C)ccc6[nH]c(=O)oc56)c(Cl)cc34)OC[C@H]2C1 (single isomer, unassigned) [Compound 48]"
13,7140 nM,"C=CC(=O)N1CCN2c3c(cnc4c(F)c(-c5c(C)ccc6[nH]cnc56)c(Cl)cc34)OC[C@H]2C1 (single isomer, unassigned) [Compound 78]"
14,662 nM,"C=CC(=O)N1CCN2c3c(cnc4cc(-c5c(C)ccc6[nH]ncc56)c(Cl)cc34)OC[C@@H]2C1 (single isomer, unassigned) [Example 6]"
15,2400 nM,"C=CC(=O)N1CCN2c3c(cnc4c(F)c(-c5c(C)ccc6[nH]c(=O)n(C)c56)c(Cl)cc34)OC[C@H]2C1 (single isomer, unassigned) [Compound 84]"
16,8600 nM,"C=CC(=O)N1CCN2c3c(cnc4c(F)c(-c5c(C)ccc6c5C(=O)NC6)c(Cl)cc34)OC[C@H]2C1 (single isomer, unassigned) [Compound 87]"
17,8300 nM,"C=CC(=O)N1CCN2c3c(cnc4cc(-c5c(C)ccc6[nH]c(=O)[nH]c56)c(Cl)cc34)OC[C@H]2C1 (single isomer, unassigned) [Compound 72]"
18,2200 nM,"C=CC(=O)N1CCN2c3c(cnc4cc(-c5c(O)cccc5F)c(Cl)cc34)N(C)C(=O)C2(C)C1 (single isomer, unassigned) [Compound 32, 11-Chloro-10-(2-fluoro-6-hydroxyphenyl)-4a,6-dimethyl-3-(prop-2-enoyl)-2,3,4,4a-tetrahydro-1H-pyrazino[1′,2′:4,5]pyrazino[2,3-c]quinolin-5(6H)-one]"
19,10 nM,"C=CC(=O)N1CCN2c3c(cnc4c(F)c(-c5c(C)ccc6[nH]c(=O)n(C)c56)c(Cl)cc34)OC[C@H]2C1 (single isomer, unassigned) [Compound 85]"
